Publication PMC10050424, “Structural basis of the substrate recognition and inhibition mechanism of Plasmodium falciparum nucleoside transporter PfENT1” (Nature Communications, 2023)
Residue numbers refer to the chain shown, from its start.

Assays:
PfENT1 mutant S49A = target: T1, PfENT1 mutant S49A (Plasmodium falciparum, UniProt Q8IDM6, S49A); assay: ITC binding to PfENT1 mutant S49A; conditions: Fig. 3c
T1 construct: 10xHis (N); made in house; host or cells: Sf9 insect cells (baculovirus)
T1 sequence (Q8IDM6 1-422 S49A): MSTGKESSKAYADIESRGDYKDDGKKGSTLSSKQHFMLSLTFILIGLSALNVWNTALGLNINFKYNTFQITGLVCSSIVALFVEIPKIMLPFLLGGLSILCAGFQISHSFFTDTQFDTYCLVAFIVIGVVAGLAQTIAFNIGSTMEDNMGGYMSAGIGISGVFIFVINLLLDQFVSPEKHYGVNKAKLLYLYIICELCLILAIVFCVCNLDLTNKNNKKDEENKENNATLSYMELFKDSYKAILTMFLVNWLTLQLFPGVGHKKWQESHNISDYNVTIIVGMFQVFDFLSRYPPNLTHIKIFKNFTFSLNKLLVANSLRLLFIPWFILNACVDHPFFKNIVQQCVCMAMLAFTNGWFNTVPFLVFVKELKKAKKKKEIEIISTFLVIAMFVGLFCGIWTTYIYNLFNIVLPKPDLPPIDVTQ
Experimental: (§1) For the in vitro binding assay, Sf9 cells were solubilized in lysis buffer containing 2% (w/v) n-dodecyl-β-D-maltopyranoside (DDM, Anatrace) and protease inhibitor cocktail (0.8 μM aprotinin, 2 μM pepstatin, and 5 μg/ml leupeptin) at 4 °C for 2 h. The soluble supernatant was collected via centrifugation and incubated with Ni-NTA resin (QIAGEN) at 4 °C for 1 h. The resin was washed and eluted using lysis buffer containing 0.05% (w/v) DDM and 30 mM/300 mM imidazole. The protein was further purified by size-exclusion chromatography (Superdex 200 Increase 10/300; GE Healthcare) in buffer containing 25 mM MES (pH 6.0), 150 mM NaCl, and 0.05% (w/v) DDM. The peak fractions were pooled and concentrated to 10~50 μM for the nucleoside-binding assay.
(§2) The binding affinity between wild-type and mutant PfENT1 with nucleosides and GSK4 was measured using a Micro-Cal ITC200 (Malvern). All proteins were prepared in 25 mM MES (pH 6.0), 150 mM NaCl, and 0.05% (w/v) DDM. Nucleosides (5~10 mM) and GSK4 (100-200 μM) dissolved in the same buffer were titrated against 20–50 μM PfENT1 proteins at 25 °C. PEAQ-ITC analysis software (MicroCal) was employed to analyze the data. All titrations were repeated three times.

PfENT1 mutant Q135A = target: T2, PfENT1 mutant Q135A (Plasmodium falciparum, UniProt Q8IDM6, Q135A); assay: ITC binding to PfENT1 mutant Q135A; conditions: Fig. 3c
T2 construct: 10xHis (N); made in house; host or cells: Sf9 insect cells (baculovirus)
T2 sequence (Q8IDM6 whole entry Q135A): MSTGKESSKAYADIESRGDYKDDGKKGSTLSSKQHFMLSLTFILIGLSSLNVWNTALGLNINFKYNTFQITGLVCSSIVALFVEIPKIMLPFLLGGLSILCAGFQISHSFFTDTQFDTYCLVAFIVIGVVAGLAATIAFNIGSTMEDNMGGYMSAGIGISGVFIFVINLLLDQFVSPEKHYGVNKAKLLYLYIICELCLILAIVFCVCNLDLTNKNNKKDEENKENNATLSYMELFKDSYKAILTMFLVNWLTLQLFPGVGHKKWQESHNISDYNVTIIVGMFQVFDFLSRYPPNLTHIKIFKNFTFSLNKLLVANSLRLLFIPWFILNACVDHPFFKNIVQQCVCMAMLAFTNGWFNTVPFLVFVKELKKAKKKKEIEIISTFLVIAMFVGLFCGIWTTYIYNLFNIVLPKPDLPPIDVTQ
Experimental: as §1, §2

PfENT1 D287A = target: T3, PfENT1 D287A (Plasmodium falciparum, UniProt Q8IDM6, D287A); assay: Inosine uptake assay, yeast expressing PfENT1 D287A; format: cell-based; conditions: Fig. 3d, construct D287A
T3 construct: expressed in transfected cells; host or cells: S. cerevisiae BY4741, FUI1 deleted, PfENT1 mutant knock-in under the TEF1 promoter
T3 sequence (Q8IDM6 whole entry D287A): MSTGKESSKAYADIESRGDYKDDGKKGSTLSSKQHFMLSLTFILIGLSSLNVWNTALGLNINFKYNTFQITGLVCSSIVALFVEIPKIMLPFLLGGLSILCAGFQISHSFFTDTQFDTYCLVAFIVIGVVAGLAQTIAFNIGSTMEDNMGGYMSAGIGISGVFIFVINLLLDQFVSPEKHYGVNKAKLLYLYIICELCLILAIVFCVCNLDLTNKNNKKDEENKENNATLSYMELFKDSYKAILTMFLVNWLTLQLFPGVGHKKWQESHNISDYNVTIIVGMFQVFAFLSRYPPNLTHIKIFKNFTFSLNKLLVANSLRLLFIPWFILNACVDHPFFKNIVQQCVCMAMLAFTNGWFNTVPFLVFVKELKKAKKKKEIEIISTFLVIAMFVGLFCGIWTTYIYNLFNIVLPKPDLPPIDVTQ
From the text: Codon-optimized PfENT1 (for expression in yeast) was synthesized by Sangon Biotech. The carboxyl terminus of PfENT1 was HA-tagged through PCR. The TEF1p promoter and PGK1t terminator were amplified from BY4741 genomic DNA. Overlap PCR was applied to generate the gene overexpression cassette of PfENT1 (TEF1p promoter-PfENT1-PGK1t terminator). The two 600-bp homologous arms corresponding to the upstream and downstream regions of the FUI1 gene were amplified from BY4741 genomic DNA. The gene cassette of the ‘TEF1p promoter-PfENT1-PGK1t terminator’ together with the two homologous arms was cloned into the PUC19 plasmid through Gibson assembly, generating the final plasmid PUC19: PfENT1. PfENT1 mutations were generated using point mutation and verified by Sanger sequencing. The spacer targeting the FUI1 gene (5ʹ-[…]-3ʹ) was cloned into the pCas-BsaI plasmid to generate the pCas-FUI1 plasmid as described previously. […]
Cells were grown overnight in YPD medium to mid-log phase and harvested by centrifugation at 3000 × g for 5 min. […] After washing by vacuum filtration with 2 ml ice-cold 2% glucose, the radioactivity retained on the filter was incubated with 1 mL of ULTIMA GOLD scintillation fluid (Perkin Elmer, 77-15311). Counts were measured using a liquid scintillation analyzer (Perkin Elmer, Tri-Carb 5110TR). […]

PfENT1Y190A = target: T4, PfENT1Y190A (Plasmodium falciparum, UniProt Q8IDM6, Y190A); assay: ITC binding to PfENT1Y190A; conditions: compared with wild type
T4 construct: 10xHis (N); made in house; host or cells: Sf9 insect cells (baculovirus)
T4 sequence (Q8IDM6 1-422 Y190A): T1 sequence (Q8IDM6 1-422 S49A) with A49S, Y190A
Experimental: as §1, §2

SMILES: OC[C@H]1O[C@@H](n2cnc3c(O)ncnc32)[C@H](O)[C@@H]1O [Inosine, inosine]
- binding affinity (Kd) (PfENT1 mutant S49A): complete abolishment
- binding affinity (Kd) (PfENT1 mutant Q135A): complete abolishment
- Uptake of [3H]-inosine (Percentage of PfENT1 WT) (PfENT1 D287A): abolished the transport activity
- inosine-binding affinity (PfENT1Y190A): similar
